According to patent US12023319B2, “Carboxylic acid aromatic amides” (priority 2016, dated 2024):
Several values for one entry are separate records, joined by “and”; a condition that tells them apart may be missing. Equal values may be shown once.

Key:
male Lewis rats = experiment: In vivo adjuvant-induced arthritis (AIA) model; set-up: species or system rat
Description: 10. In Vivo Adjuvant-Induced Arthritis (AIA) Model
The AIA model is characterized by a rapid onset and progression to polyarticular inflammation. Following the injection of CFA, signs of arthritis usually develop between day 10 and day 14. Typically, the disease is severe and leads to permanent joint malformations, including ankylosis. Joint swelling, lymphocyte infiltration, and cartilage degradation are shared features with human autoimmune arthritis.
To determine the anti-inflammatory activity of the Compound Examples, they were examined for their in vivo efficacy in an arthritis model. For this purpose, male Lewis rats (about 100 to 125 g, Charles River Laboratories, Germany) were each administered 100 μl of a complete Freund's adjuvant (CFA) solution (M. tuberculosis H37Ra [Difo Lab, Cat. No. 231141] dissolved in Incomplete Freund's adjuvant [Difco Lab, Cat. No. 263910]) into the tailhead subcutaneously on day 0. There were n=8 rats in each group. Both, a healthy control group and a disease control group treated with the vehicle only were included in the study. Each control group was given oral (p.o. or PO) treatment only with the vehicle (5% DMSO/95% PBS) of the Compound Examples. The treatment with different dosages of the Compound Examples dissolved in the vehicle was conducted in a preventative manner, i.e. starting from day 0 and continued to day 20, the end of the study, by daily oral administration. On day 0, the starting condition of the animals was determined in terms of the disease activity scores (rating of the severity of arthritis based on a points system). Here, points were awarded according to the extent of joint inflammation from 0 to 4 for the presence of an erythema including joint swelling (0=none; 1=slight; 2=moderate; 3=distinct; 4=severe) for both hind paws and were summed up to a single value. […] In addition, the extent of joint swelling was detected by measuring the ankles of hind paws sagittal×transversal [in mm^2] using an automated caliper (Bayer AG, Germany). Next to this, the grip strength, as a measure for hyperalgesia, using an automated grip strength test meter (IITC Life Science Inc., USA) was evaluated.
Statistical analysis of obtained results for all parameters were done with one way Anova (ANOVA; Analysis of variance) and the comparison to the control group via multiple reference analysis (Dunnett-test).

Male Sprague-Dawley rats = experiment: Rat STZ model for diabetic neuropathy (cold plate, warm plate, paw pressure, SNCV); type: in vivo; details: for Latency in Cold plate / Latency in Warm plate / Paw pressure: STZ rats; for Latency in Cold plate / Latency in Warm plate: Day 10, individual animals; for Paw pressure: Day 21, individual animals
Procedure: 7. Rat STZ Model for Diabetic Neuropathy (Diabetic Neuropathic Pain, Diabetes Induced Nerve Degeneration)
The streptozotocin (STZ) diabetic rat is the most extensively studied animal model of diabetic neuropathy. The animals develop rapidly allodynia and hyperalgesia.
Male Sprague-Dawley rats (˜200 g) were used. They were rendered diabetic by intravenous injection of streptozotocin (55 mg/kg; day 0). Four days (day 4) later, diabetes was confirmed in STZ-injected rats by obtaining a blood sample from the tail vein and by measuring the glucose concentration using a glucose monitor. Only STZ-treated rats with plasma-glucose>260 mg/dl were deemed “diabetic”. The body weight of rats was recorded on daily basis from day 4 to 40.
72 animals were randomly assigned to different groups (12 rats per group).
Compound example 3 was prepared in 10% DMSO in PBS (v/v). […] The treatment was performed on daily basis (twice a day: morning and afternoon) from day 4 until day 40. On the day where behavioral measures are performed, compound or vehicle was given 60 min prior the assessment. On the day where electrophysiological measure was performed, treatment was performed after the assessment.
For positive control regarding analgesia, morphine was dissolved in 0.9% NaCl, and administrated subcutaneously (s.c.) at the dose of 3 mg/kg 45 min prior the tests.
Experimental Plan: • Day 0: induction of diabetes by injection of STZ for all groups except the control group injected with the STZ vehicle • Day 4: glycemia monitoring for all groups and start of the treatment for all groups, except the morphine group. On day 4 rats received only the evening treatment. • Day 10: cold and warm allodynia test for all groups. Treatment is given 60 min prior to the assessment. On that day, the time between the morning and the evening treatment was reduced. • Day 21: Mechanical hyperalgesia test for all groups. Compound or vehicle was given 60 min prior to the assessment. On that day, the time between the morning and the evening treatment was reduced. • Day 22: Termination of rats in the morphine group. • Day 25-26: measurement of sensory nerve conduction velocity (SNCV). On that day, rats only received the evening treatment. • Day 39-40: measurement of sensory nerve conduction velocity (SNCV). On that day, rats only received the evening treatment. • Day 41: skin biopsy from all rats (histology processing and immunostaining of skin biopsy from 7 rats per group take about 4 weeks).
Cold Plate Test on Day 10
The animals were placed into a glass cylinder on a cold platform (0-1° C.). The latency before the first reaction (brisk move of the paw, little leaps) was recorded with a maximal time of 30 s.
Warm Plate Test on Day 10
The animals were placed into a glass cylinder on a hot plate adjusted to 42° C. The latency of the first reaction was recorded (paw lifting or licking, leaps or a jump to escape the heat). Results can be seen in FIG. 8 and table 6.
Paw pressure test is used to assess the hyperalgesia of animals in response to noxious mechanical stimulus. The nociceptive flexion reflex was quantified using the Randall-Selitto paw pressure device (Bioseb, France), which applies a linearly increasing mechanical force to the dorsum of the rat's hind paw. The mechanical nociceptive threshold is defined as the force in grams at which the rat withdraws its paw. The cut off pressure was set to 250 g.
Electrophysiological Measurements (SNCV)
Electrophysiological recordings of SNCV were performed using a Keypoint Electromyograph (EMG) (Medtronic, France). Rats were anaesthetized by intraperitoneal injection of 60 mg/kg ketamine chlorhydrate and 4 mg/kg xylazine. SNCV was recorded in the tail. Electrodes were placed as follows: The recording needle electrode was inserted near the base of the tail and stimulating needle electrode is placed about 50 mm away from the recording electrode towards the extremity of the tail. […]

For `O=C(O)c1cc(NC(=O)C2(c3ccc(C(F)(F)F)cc3F)CC2)ccc1-c1cnn(C2CCC2)c1` [Example 3, 2-(1-Cyclobutyl-1H-pyrazol-4-yl)-5-[({1-[2-fluoro-4-(trifluoromethyl)phenyl]cyclopropyl}carbonyl)amino]benzoic acid], the “dose-dependency in the adjuvant-induced arthritis (AIA) model” value (male Lewis rats; 60, 15 or 3 mg/kg QD p.o., day 0 to day 20) was “clear dose-dependency”, the “severity of rat AIA” value (male Lewis rats; oral treatment with 60 mg/kg once daily) was “significantly inhibited” and the disease activity score (male Lewis rats; rat AIA model, oral once daily, FIG. 14A) was “reduction”. For the same molecule, the “extent of joint swelling” value (male Lewis rats; rat AIA model, oral once daily, FIG. 14B) was “reduction”, the “grip strength (hyperalgesia)” value (male Lewis rats; rat AIA model, oral once daily, FIG. 15) was “increase” and the “effects in all endpoints (warm/cold/mechanical) of neuropathic pain” value (Male Sprague-Dawley rats; STZ diabetic rats, p.o. twice a day from day 4, tests on day 10 and day 21) was “significant effects”. The “Latency in Cold plate” value (Male Sprague-Dawley rats; 3 mg/kg, 3 mg/kg) was 14.39 s and 14.46 s and 22.78 s and 15.84 s and 16.87 s and 16.18 s and 21.38 s and 20.52 s and 17.93 s and 15.23 s and 26.66 s and 23.47 s, the “Latency in Warm plate” value (Male Sprague-Dawley rats; 3 mg/kg, 3 mg/kg) was 19.71 s and 21.41 s and 22.31 s and 20.16 s and 14.49 s and 17.12 s and 22.29 s and 17.89 s (2×) and 23.35 s and 24.72 s and 21.04 s and the Paw pressure (Male Sprague-Dawley rats; 3 mg/kg, 3 mg/kg) was 125 g (3×) and 150 g (2×) and 105 g (4×) and 115 g and 140 g and 100 g. For the same molecule, the “Latency in Cold plate” value (Male Sprague-Dawley rats; 15 mg/kg, 15 mg/kg) was 22.94 s and 18.19 s and 23.62 s and 18.66 s and 20.23 s and 19.51 s and 23.02 s and 17.08 s and 24.66 s and 24.25 s and 20.00 s, the “Latency in Warm plate” value (Male Sprague-Dawley rats; 15 mg/kg, 15 mg/kg) was 21.21 s and 17.56 s and 30.00 s and 23.09 s and 23.47 s and 19.44 s and 28.47 s and 15.88 s and 24.82 s and 20.31 s and 27.35 s and the Paw pressure (Male Sprague-Dawley rats; 15 mg/kg, 15 mg/kg) was 100 g and 125 g (2×) and 135 g (2×) and 120 g and 110 g (3×) and 85 g and 105 g. For the same molecule, the “Latency in Cold plate” value (Male Sprague-Dawley rats; 60 mg/kg, 60 mg/kg) was 20.21 s and 15.60 s and 17.29 s and 19.84 s and 14.52 s and 13.66 s and 22.28 s and 24.12 s and 21.12 s and 17.48 s and 22.45 s and 16.59 s, the “Latency in Warm plate” value (Male Sprague-Dawley rats; 60 mg/kg, 60 mg/kg) was 17.88 s and 24.69 s and 21.32 s and 18.69 s and 21.23 s and 28.84 s and 18.84 s and 30.00 s and 23.02 s and 20.56 s and 26.94 s and 20.31 s and the Paw pressure (Male Sprague-Dawley rats; 60 mg/kg, 60 mg/kg) was 105 g and 165 g and 95 g and 115 g (3×) and 140 g and 120 g and 110 g (3×) and 190 g.
